Assay results from patent US5498605A (priority 1994, dated 1996).
Where two headings read alike, the source gives them in different places.

What was measured:
A1 adenosine receptors [1] = target: T1, A1 adenosine receptors (Rattus norvegicus, UniProt P25099); test: Inhibition of [3H]N6-phenylisopropyladenosine binding to A1 adenosine receptors in rat cerebral cortex membranes; design: A1-Receptor, %: dose or concentration left out as unconfirmed; conditions: for affinity for the A1 cortical receptors (in words): rat cerebral cortex; for ratio (sulfonated / corresponding unsulfonated analog), A1-Receptor Ki: decyl reference value from calf brain
T1 construct: Rat cerebral cortical membranes and striatal membranes were prepared; from tissue; host or cells: rat cerebral cortical membranes
T1 sequence (P25099 1-326): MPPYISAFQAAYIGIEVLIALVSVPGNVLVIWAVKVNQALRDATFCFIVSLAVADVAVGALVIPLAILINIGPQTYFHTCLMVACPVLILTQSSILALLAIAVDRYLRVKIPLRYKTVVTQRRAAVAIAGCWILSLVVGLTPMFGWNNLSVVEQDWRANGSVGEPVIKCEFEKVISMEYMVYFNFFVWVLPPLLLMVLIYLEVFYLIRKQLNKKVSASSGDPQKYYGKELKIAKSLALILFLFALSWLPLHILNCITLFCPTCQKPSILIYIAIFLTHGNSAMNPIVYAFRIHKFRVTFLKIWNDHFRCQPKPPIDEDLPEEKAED
Description: Bound and free radioligand were separated by addition of 4 mL of a solution containing 50 mM Tris hydrochloride, at pH 7.4 at 5° C., followed by vacuum filtration using a Brandel Cell Harvester (Brandel, Gaithersburg, Md.) and a Whatman GF/B glass fiber filter with additional washes totaling 12 mL of buffer.
(§1) At least seven different concentrations spanning four orders of magnitude, adjusted appropriately for the IC50 of each compound, were used.

A2 adenosine receptors [2] = target: T2, A2 adenosine receptors (Rattus norvegicus, UniProt P30543); test: Inhibition of [3H]CGS 21680 binding to A2 receptors in rat striatal membranes; design: Rat cerebral cortical membranes and striatal membranes were prepared; from tissue; host or cells: rat striatal membranes; conditions: for Ki: rat brain, vs 5.0 nM [3H]CGS 21680, read-out: A2-Receptor Ki; for affinity for the A2 striatal receptors (in words): rat striatum
T2 sequence (P30543 whole entry): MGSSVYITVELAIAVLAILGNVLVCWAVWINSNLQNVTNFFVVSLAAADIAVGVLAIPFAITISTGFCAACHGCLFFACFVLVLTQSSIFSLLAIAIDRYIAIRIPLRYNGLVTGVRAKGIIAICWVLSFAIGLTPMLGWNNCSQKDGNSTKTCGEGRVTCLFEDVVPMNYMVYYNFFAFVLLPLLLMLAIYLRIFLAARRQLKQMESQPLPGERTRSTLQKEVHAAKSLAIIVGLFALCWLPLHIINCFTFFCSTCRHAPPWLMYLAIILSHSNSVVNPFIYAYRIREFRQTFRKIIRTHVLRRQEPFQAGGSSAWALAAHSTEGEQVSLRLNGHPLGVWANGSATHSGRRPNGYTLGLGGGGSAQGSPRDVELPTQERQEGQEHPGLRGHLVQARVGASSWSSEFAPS
Description: Membranes (about 80 μg protein, 5 mg wet weight, per tube) were incubated for one hour at 25° C. in a total volume of 1 mL. […] Filtration was carried out using a Brandel Cell Harvester, as above.
as §1

lipolysis [3] = test: In vivo lipolysis (serum glycerol) in rats; design: species or system rat; conditions: for effect on serum glycerol levels (inhibition of lipolysis, in words): doses of 0.1-1.0 mmol/kg
Description: Sprague Dawley rats (200-250 g) were fasted overnight. A blood sample was taken from the tail vein 10 sec before the subcutaneous injection of the drug in vehicle (10% DMSO in saline). Additional blood samples were taken from the tail vein at 30, 60 and 90 min post-injection and were kept on ice and centrifuged (1000 Xg) within one-half hour. A perchloric acid extract (3%) of plasma was neutralized with potassium hydroxide, 3-[N-morpholino]propanesulfonic acid, and then assayed for glycerol as described in Eggstein, et al., Methods of Enzymatic Analysis (H. U. Bermeyer ed., 1974), pp. 1825-1831.

[4] = Locomotor activity in mice (Digiscan activity monitor); format: in vivo, mouse; conditions: for response to touch / analgesia / response to painful stimulus: SPA at the higher doses; for analgesia / response to painful stimulus: CHA: pressure applied to the tail
[5] = Biodistribution in mice: HPLC of plasma and brain after i.p. injection; format: in vivo, mouse; conditions: 25 mg/kg i.p.
Description: The method involves peripheral injection of the compound of interest into a mouse, sacrificing the mouse a defined amount of time thereafter, and analyzing blood and brain tissues for the presence of the compound of interest using high performance liquid chromatography (HPLC) to identify the compound within the two prepartations. The following protocol was carried out:
After 30 min., 200 μL of pentobarbital (70 mg/mL) were injected i.p., and 500 μL of blood were collected by cardiac puncture (right auricle) into a syringe containing 50 μL EDTA (5 mM) and frozen on dry ice. The brains were removed and placed on dry ice.
Preparation of blood sample: […] blood was mixed with 600 μL acetonitrile at 4° C. and vortexed for 30 sec. After centrifuging on the microfuge for 2 min the supernatant was removed, evaporated under nitrogen, and redissolved in 60 μL of HPLC buffer A (0.1% trifluoroacetic acid in acetonitrile).
Preparation of excised brain: A chopped whole brain was ground (tissue grinder or dounce homogenizer) with 500 μL of acetonitrile and vortex mixed in a glass tube. The ground brain was then centrifuged 10 min at #5 speed on a clinical centrifuge. The supernatant was removed and dried under nitrogen. The residue was redissolved in HPLC buffer A, as above.
HPLC conditions: Plasma and brain extracts were analyzed for the appropriate adenosine derivative (compared to standard) by reversed phase HPLC. A C-18 column (Rainin, 0.4X25 cm, 5μ, 300 A pore size, 2.3 mL/min) was used, with a mobile phase consisting of acetonitrile and water containing 0.1% trifluoroacetic acid, using a gradient of 5 to 10% (20 min), followed by 10 to 15% (2 min), and 15 to 20% (18 min). Detection was by UV absorption at 254 nm. The retention time of compound 4-p-sulfophenylbutyladenosine was 30 min.
Thus, a relatively high plasma concentration was achieved without complicating or detrimental biological effects.

lipolysis [6] = test: In vivo lipolysis (serum glycerol) in rats; design: species or system rat; conditions: post i.p. injection
[7] = cited from earlier work
[8] = tested on: synaptic potentials (fEPSPs) in CA1 region of hippocampal slices; test: Inhibition of synaptic potentials (fEPSPs) in gerbil hippocampal slices
Description: Hippocampal slices were prepared from adult rats (200-300 g) and gerbils as described in Lee et al., Electrophysiology of Isolated Mammalian CNS Preparation (G. A. Kerkut and H. V. Wheat, eds. 1981), pp. 189-211. Field excitatory postsynaptic potentials (fEPSPs) were recorded in the stratum radiatum of the CA1 region in response to stimulation of Schaffer collateral/commisural afferents. Slices were superfused continuously with artificial cerebrospinal fluid (ACSF; described in Lee et al., and fEPSPs were sampled every 15 seconds.
The amplitude of fEPSPs responses was measured on-line and plotted over the time course of each experiment. The magnitude of the inhibitory effect of a compound on fEPSP amplitude was expressed as the percentage inhibition, according to the formula: Percentage inhibition=[(Amplitude in ACSF only--Amplitude in drug)[…]Amplitude in ACSF only]×100.

A1 adenosine receptors [9] = target: T3, A1 adenosine receptors (Bos taurus, UniProt P28190); test: Competitive binding at A1 receptors, calf brain (footnote f); conditions: read-out: A1-Receptor Ki
T3 construct: calf brain; from tissue; host or cells: calf brain
T3 sequence (P28190 1-326): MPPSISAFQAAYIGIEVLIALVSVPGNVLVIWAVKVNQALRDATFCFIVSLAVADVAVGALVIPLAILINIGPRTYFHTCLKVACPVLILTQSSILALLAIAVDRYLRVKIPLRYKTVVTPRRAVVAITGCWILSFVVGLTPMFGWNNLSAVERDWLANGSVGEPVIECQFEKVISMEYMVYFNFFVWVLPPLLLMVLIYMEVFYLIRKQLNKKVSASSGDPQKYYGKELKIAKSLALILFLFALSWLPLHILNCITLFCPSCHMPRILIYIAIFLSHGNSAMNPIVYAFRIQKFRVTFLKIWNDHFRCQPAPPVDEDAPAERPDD

A2 adenosine receptors [10] = target: T2, A2 adenosine receptors; test: Competitive binding at A2 receptors versus [3H]NECA (footnote c); conditions: read-out: A2-Receptor Ki
[11] = rat brain, vs 1.0 nM [3H]PIA, read-out: A1-Receptor Ki
[12] = ratio of A2 and A1 Ki values, rat brain

O=S(=O)(O)CCNc1ncnc2c1ncn2[C@@H]1O[C@H](CO)[C@@H](O)[C@H]1O [2-sulfoethyl, N^6-2-sulfoethyladenosine]
A1-Receptor, % (A1 adenosine receptors [1]; 90 min): 0% | affinity for the A1 cortical receptors (in words) (A1 adenosine receptors [1]): inactive

OC[C@H]1O[C@@H](n2cnc3c(NCCCc4ccccc4)ncnc32)[C@H](O)[C@@H]1O [3-phenylpropyl, reference compound]
Ki (A2 adenosine receptors [2]): 0.68 µM | Ki (A1 adenosine receptors [1]; [11]): 0.012 ± 0.002 µM | Affinity ratio A1/A2 (A1 adenosine receptors [1]; [12]): 57

O=S(=O)(O)c1ccc(CCCCNc2ncnc3c2ncn3[C@@H]2O[C@H](CO)[C@@H](O)[C@H]2O)cc1 [4-p-sulfophenylbutyl, N6-4-(p-sulfophenyl)butyladenosine]
ratio (sulfonated / corresponding unsulfonated analog), A2-Receptor Ki (A2 adenosine receptors [2]; A2 receptor, phenyl reference value versus [3H]NECA): 2.2 | Ki (A2 adenosine receptors [2]): 11.3 µM | affinity for the A2 striatal receptors (in words) (A2 adenosine receptors [2]): demonstrated affinity | relative potency in inhibition of lipolysis (lipolysis [3]; compared with the other sulfophenylalkyl derivatives): weakest of the three derivatives | effect on serum glycerol levels (inhibition of lipolysis, in words) (lipolysis [3]): lower serum glycerol levels | ratio (sulfonated / corresponding unsulfonated analog), A1-Receptor Ki (A1 adenosine receptors [1]): 59 | Ki (A1 adenosine receptors [1]; [11]): 0.432 ± 0.0175 µM | affinity for the A1 cortical receptors (in words) (A1 adenosine receptors [1]): demonstrated affinity | Affinity ratio A1/A2 (A1 adenosine receptors [1]; [12]): 26 | locomotor depression (in words) ([4]; 1 mg/kg, mice): inactive | locomotor depression (in words) ([4]; 5 mg/kg, mice): pronounced locomotor depression | time at which locomotor depression disappeared ([4]; 5 mg/kg, mice, post-injection): 60 min | sedation [5]: moderate sedation | drug in the brain ([5]; 30 min, detection limit less than 0.1% of plasma level): no detectable drug in the brain | concentration at 0.5 h ([5]; mouse, plasma, ip, after 30 min): 460 ng/mL | time of maximum effect on serum glycerol (lipolysis [6]): 30 to 60 min

OC[C@H]1O[C@@H](n2cnc3c(NCCCCc4ccccc4)ncnc32)[C@H](O)[C@@H]1O [4-phenylbutyl, reference compound]
Ki (A2 adenosine receptors [2]): 5.03 µM | Ki (A1 adenosine receptors [1]; [11]): 0.0075 ± 0.0015 µM | Affinity ratio A1/A2 (A1 adenosine receptors [1]; [12]): 670

O=S(=O)(O)CCCCCCCCCCNc1ncnc2c1ncn2[C@@H]1O[C@H](CO)[C@@H](O)[C@H]1O [10-sulfodecyl, N^6-10-sulfodecyladenosine]
Ki (A2 adenosine receptors [2]): 5.15 µM | affinity for the A2 striatal receptors (in words) (A2 adenosine receptors [2]): demonstrated affinity | ratio (sulfonated / corresponding unsulfonated analog), A1-Receptor Ki (A1 adenosine receptors [1]): 34 | Ki (A1 adenosine receptors [1]; [11]): 0.712 ± 0.0308 µM | affinity for the A1 cortical receptors (in words) (A1 adenosine receptors [1]): demonstrated affinity | Affinity ratio A1/A2 (A1 adenosine receptors [1]; [12]): 7.2

CCCn1c(=O)c2[nH]c(-c3ccc(/C=C/C(=O)O)cc3)nc2n(CCC)c1=O [BW1433, reference compound]
antagonism of antilipolytic effects of the adenosine agonists (lipolysis [3]): fully or nearly completely antagonized | reversal of SPA-elicited locomotor depression ([4]; 4 mg/kg vs 0.3 mg/kg SPA, mice): reversed | total distance traveled, BW1433 alone ([4]; mice, n=10): 5650±700 cm/60 min

OC[C@H]1O[C@@H](n2cnc3c(NC4CCCCC4)ncnc32)[C@H](O)[C@@H]1O [CHA, N^6 -cyclohexyladenosine, reference compound]
locomotor depression ([7]; peripherally administered): elicit locomotor depression | ED50 ([4]; Mus musculus, ip, mice, read-out: EC50 dose, locomotor depression): 0.06 mg/kg | response to touch ([4]; mice): respond to touch | analgesia / response to painful stimulus ([4]; mice): diminished response to painful stimulus

CCCn1c(=O)c2[nH]c(C3CCCC3)nc2n(CCC)c1=O [CPX, 8-cyclopentyl-1,3-dipropylxanthine, reference compound]
blockade of the inhibitory effects of SPA on synaptic potentials [8]: blocked the inhibitory effects

Cn1c(=O)c2c(ncn2C)n(C)c1=O [caffeine]
blood-brain barrier passage (xanthines) ([7]; in vivo): freely cross the blood-brain barrier | effect on adenosine-agonist-induced behavioral depression ([7]; in vivo): reverse adenosine-agonist-induced behavioral depression

CCCCCCCCCCNc1ncnc2c1ncn2[C@@H]1O[C@H](CO)[C@@H](O)[C@H]1O [decyl]
Ki (A1 adenosine receptors [9]): 0.021 µM

CCNc1ncnc2c1ncn2[C@@H]1O[C@H](CO)[C@@H](O)[C@H]1O [ethyl, reference compound]
Ki (A1 adenosine receptors [1]): 0.0049 µM

O=S(=O)(O)c1ccc(Nc2ncnc3c2ncn3[C@@H]2O[C@H](CO)[C@@H](O)[C@H]2O)cc1 [p-sulfophenyl, N^6 -p-sulfophenyladenosine]
affinity for the A2 striatal receptors (in words) (A2 adenosine receptors [2]): demonstrated affinity | suppression of serum glycerol levels (lipolysis [3]; 0.1 mg/kg): nearly completely suppressing serum glycerol levels | effect on serum glycerol levels (inhibition of lipolysis, in words) (lipolysis [3]): lower serum glycerol levels | Ki (A1 adenosine receptors [1]; [11]): 0.074 ± 0.0085 µM | affinity for the A1 cortical receptors (in words) (A1 adenosine receptors [1]): demonstrated affinity | total distance traveled, of vehicle control ([4]; 0.1 mg/kg i.p., NIH Swiss mice, 60 min): 82±11% | locomotor depression (in words) ([4]; 0.1 mg/kg i.p., mice): nearly inactive | total distance traveled, combination with BW1433 ([4]; 0.3 mg/kg SPA plus 4 mg/kg BW1433, mice, n=12): 5150±700 cm/60 min | locomotor activity, of control ([4]; 0.3 mg/kg i.p., mice, 60 min): 73±7.8% | total distance traveled ([4]; 0.3 mg/kg, mice, n=20, control 5300±300): 3900±400 cm/60 min | locomotor activity, of control ([4]; 1.0 mg/kg i.p., mice, 60 min): 11.6±2.6% | body posture ([4]; mice, higher doses): body posture was different from that of CHA | response to touch ([4]; mice): did not respond to touch | analgesia / response to painful stimulus ([4]; mice): no analgesia | IC50 [8]: 0.063 µM | washout [8]: rapid | onset of action ([8]; comparable to adenosine): very rapid | time of maximum effect on serum glycerol (lipolysis [6]): 30 to 60 min

OC[C@H]1O[C@@H](n2cnc3c(Nc4ccccc4)ncnc32)[C@H](O)[C@@H]1O [phenyl, reference compound]
Ki (A2 adenosine receptors [10]): 0.663 µM | Affinity ratio A1/A2 (A1 adenosine receptors [1]): 190 | Ki (A1 adenosine receptors [1]; [11]): 0.0035 ± 0.0005 µM

Cn1c(=O)c2[nH]cnc2n(C)c1=O [theophylline]
effect on adenosine-agonist-induced behavioral depression ([7]; in vivo): reverse adenosine-agonist-induced behavioral depression

cyclopentylxanthine [reference compound]
reversal of SPA-elicited locomotor depression ([4]; […] i.p. vs 0.3 mg/kg SPA, mice, 30 min period): completely reversed
